Results taken from PubChem BioAssay (NCI).
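Test compounds were applied to cells in 96-well plates for 48 hours at 5 doses. GI50: concentration for 50% inhibition of growth. TGI marks complete inhibition of growth.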 *1 amine or outer side, *2 acyl side, *3 side chain or, on linkers, in order; H or OH if unused. Where a SMILES comes first, the peptide text is derived from it. Bridges are numbered along the chain shown (N, C = ends). [ ]: non-standard residue; d: D form. The star is where a group is joined. X19 = O=C([C@H](N[*:1])c1ccc(O[C@H]2O[C@@H](CO)[C@@H](O)[C@@H](O)[C@H]2O[C@@H]2O[C@H](CO)[C@H](O)[C@H](O)[C@@H]2O)cc1)[*:2]; X18 = NC(=O)[C@@H](O[*:3])[C@H](N[*:1])C(=O)[*:2]; X20 = O=C([C@H](N[*:1])c1ccc(O)c(Cl)c1)[*:2]; d(aThr) = C[C@@H](O)[C@@H](N)C(=O)O; dHpg = N[C@@H](C(=O)O)c1ccc(O)cc1; X17 = CC(C)C/C=C/C=C/C(=O)*; dOrn = NCCC[C@@H](N)C(=O)O

Key:
Experiment in all cases: NCI-60 cell line screen, 48 h
A549 NSCLC = test system: A549 NSCLC
OVCAR-8 ovarian = test system: OVCAR-8 ovarian
SK-MEL-2 melanoma = test system: SK-MEL-2 melanoma
NCI/ADR-RES ovarian = test system: NCI/ADR-RES ovarian
K-562 leukemia = test system: K-562 leukemia
SF-268 CNS = test system: SF-268 CNS
IGROV1 ovarian = test system: IGROV1 ovarian
SK-MEL-5 melanoma = test system: SK-MEL-5 melanoma
NCI-H23 lung = test system: NCI-H23 lung
SNB-19 CNS = test system: SNB-19 CNS

`O=C(O[C@H]1CN[C@H](C#Cc2cc3ncnc(Nc4ccc(OCc5cccc(F)c5)c(Cl)c4)c3s2)C1)N1CCOCC1` showed a GI50 (A549 NSCLC) of 6 µM, a TGI (A549 NSCLC) greater than 25 µM and a GI50 (OVCAR-8 ovarian) of 7.35 µM. For the same compound, the TGI (OVCAR-8 ovarian) was greater than 25 µM, the GI50 (SK-MEL-2 melanoma) was 7.4 µM and the TGI (SK-MEL-2 melanoma) was 18.7 µM. For the same compound, the GI50 (NCI/ADR-RES ovarian) was 6.3 µM, the TGI (NCI/ADR-RES ovarian) was greater than 25 µM and the GI50 (K-562 leukemia) was 11.1 µM. For the same compound, the TGI (K-562 leukemia) was greater than 25 µM, the GI50 (SF-268 CNS) was 5.81 µM and the TGI (SF-268 CNS) was greater than 25 µM. The GI50 (IGROV1 ovarian) was 2.69 µM, the TGI (IGROV1 ovarian) was greater than 25 µM and the GI50 (SK-MEL-5 melanoma) was 8.55 µM. For the same compound, the TGI (SK-MEL-5 melanoma) was greater than 25 µM, the GI50 (NCI-H23 lung) was 9.7 µM and the TGI (NCI-H23 lung) was greater than 25 µM. The GI50 (SNB-19 CNS) was greater than 25 µM and the TGI (SNB-19 CNS) was greater than 25 µM.
`ClC1(c2ccccc2)c2ccc(Br)cc2-c2cc(Br)ccc21` gave a TGI (A549 NSCLC) of 34.3 µM, a TGI (OVCAR-8 ovarian) of 35.8 µM and a TGI (SK-MEL-2 melanoma) of 32.5 µM. It also gave a TGI (NCI/ADR-RES ovarian) of 34.3 µM, a TGI (K-562 leukemia) greater than 100 µM and a TGI (SF-268 CNS) of 39.7 µM. For the same compound, the TGI (IGROV1 ovarian) was 30.2 µM, the TGI (SK-MEL-5 melanoma) was 29.1 µM and the TGI (NCI-H23 lung) was 29.3 µM. It also gave a TGI (SNB-19 CNS) of 31.3 µM.
`COc1cc([C@@H]2c3cc4c(cc3[C@H](OC(C)=O)[C@H]3COC(=O)[C@H]23)OCO4)cc(OC)c1OC` showed a GI50 (A549 NSCLC) of 0.0349 µM, a TGI (A549 NSCLC) greater than 100 µM and a GI50 (OVCAR-8 ovarian) of 0.0361 µM. For the same compound, the TGI (OVCAR-8 ovarian) was greater than 100 µM, the GI50 (SK-MEL-2 melanoma) was 27.6 µM and the TGI (SK-MEL-2 melanoma) was greater than 100 µM. It also gave a GI50 (NCI/ADR-RES ovarian) of 0.0271 µM, a TGI (NCI/ADR-RES ovarian) greater than 100 µM and a GI50 (K-562 leukemia) of 0.0321 µM. For the same compound, the TGI (K-562 leukemia) was greater than 100 µM, the GI50 (SF-268 CNS) was 0.0484 µM and the TGI (SF-268 CNS) was greater than 100 µM. The GI50 (IGROV1 ovarian) was 0.0571 µM, the TGI (IGROV1 ovarian) was greater than 100 µM and the GI50 (SK-MEL-5 melanoma) was 0.0229 µM. For the same compound, the TGI (SK-MEL-5 melanoma) was 0.0658 µM, the GI50 (NCI-H23 lung) was 0.053 µM and the TGI (NCI-H23 lung) was greater than 100 µM. For the same compound, the GI50 (SNB-19 CNS) was 0.0436 µM and the TGI (SNB-19 CNS) was greater than 100 µM.
`Cc1cccc2c1O/C(=C\c1ncc([N+](=O)[O-])n1C)C2=O` was tested, and the GI50 (A549 NSCLC) was 0.382 µM, the TGI (A549 NSCLC) was 2.26 µM and the GI50 (OVCAR-8 ovarian) was 0.166 µM. The GI50 (SK-MEL-2 melanoma) was 0.246 µM, the TGI (SK-MEL-2 melanoma) was 0.584 µM and the GI50 (NCI/ADR-RES ovarian) was 0.2 µM. For the same compound, the TGI (NCI/ADR-RES ovarian) was 0.783 µM, the GI50 (K-562 leukemia) was 0.304 µM and the TGI (K-562 leukemia) was 3.18 µM. For the same compound, the GI50 (SF-268 CNS) was 0.215 µM, the TGI (SF-268 CNS) was 0.942 µM and the GI50 (IGROV1 ovarian) was 0.217 µM. For the same compound, the TGI (IGROV1 ovarian) was 2.92 µM, the GI50 (SK-MEL-5 melanoma) was 0.152 µM and the TGI (SK-MEL-5 melanoma) was 0.367 µM. The GI50 (NCI-H23 lung) was 0.213 µM, the TGI (NCI-H23 lung) was 0.742 µM and the GI50 (SNB-19 CNS) was 0.615 µM. For the same compound, the TGI (SNB-19 CNS) was 4.6 µM.
With `CC(C)C/C=C/C=C/C(=O)N[C@@H](CC(N)=O)C(=O)N[C@@H]1C(=O)N[C@H](c2ccc(O)cc2)C(=O)N[C@H](CCCN)C(=O)N[C@H]([C@@H](C)O)C(=O)N[C@H](c2ccc(O)cc2)C(=O)N[C@H](c2ccc(O)cc2)C(=O)N[C@H]([C@H](C)O)C(=O)N[C@H](Cc2ccccc2)C(=O)N[C@H](CCCN)C(=O)N[C@H](c2ccc(O[C@H]3O[C@@H](CO)[C@@H](O)[C@@H](O)[C@H]3O[C@@H]3O[C@H](CO)[C@H](O)[C@H](O)[C@@H]3O)cc2)C(=O)N[C@H]([C@H](C)O)C(=O)N[C@H](c2ccc(O)cc2)C(=O)NCC(=O)N[C@H](CC(C)C)C(=O)N[C@H](C)C(=O)N[C@H](c2ccc(O)c(Cl)c2)C(=O)O[C@@H]1C(N)=O` (X17-N[X18][dHpg][dOrn][d(aThr)][dHpg][dHpg][dT][dF][dOrn][X19][dT][dHpg]G[dL][dA][X20]; ester 2-C) the GI50 (A549 NSCLC) was greater than 100 µM, the TGI (A549 NSCLC) was greater than 100 µM and the GI50 (OVCAR-8 ovarian) was 46.8 µM. It also gave a TGI (OVCAR-8 ovarian) greater than 100 µM, a GI50 (SK-MEL-2 melanoma) greater than 100 µM and a TGI (SK-MEL-2 melanoma) greater than 100 µM. The GI50 (NCI/ADR-RES ovarian) was 39.5 µM, the TGI (NCI/ADR-RES ovarian) was greater than 100 µM and the GI50 (K-562 leukemia) was 36.3 µM. For the same compound, the TGI (K-562 leukemia) was greater than 100 µM, the GI50 (SF-268 CNS) was 34.2 µM and the TGI (SF-268 CNS) was greater than 100 µM. For the same compound, the GI50 (IGROV1 ovarian) was greater than 100 µM, the TGI (IGROV1 ovarian) was greater than 100 µM and the GI50 (SK-MEL-5 melanoma) was 22.1 µM. For the same compound, the TGI (SK-MEL-5 melanoma) was 44.6 µM, the GI50 (NCI-H23 lung) was 25.8 µM and the TGI (NCI-H23 lung) was 88.9 µM. For the same compound, the GI50 (SNB-19 CNS) was 23.9 µM and the TGI (SNB-19 CNS) was 55.4 µM.
For `C#Cc1cccc(Nc2ncnc3ccc(-c4cnc(Cl)c(NS(C)(=O)=O)c4)cc23)c1`, the GI50 (A549 NSCLC) was 0.725 µM, the TGI (A549 NSCLC) was 4.83 µM and the GI50 (OVCAR-8 ovarian) was 0.825 µM. It also gave a TGI (OVCAR-8 ovarian) greater than 33.5 µM, a GI50 (SK-MEL-2 melanoma) of 0.296 µM and a TGI (SK-MEL-2 melanoma) of 1.62 µM. It also gave a GI50 (NCI/ADR-RES ovarian) of 1.24 µM, a TGI (NCI/ADR-RES ovarian) of 10 µM and a GI50 (K-562 leukemia) of 0.682 µM. The TGI (K-562 leukemia) was greater than 100 µM, the GI50 (SF-268 CNS) was 0.155 µM and the TGI (SF-268 CNS) was 1.67 µM. For the same compound, the GI50 (IGROV1 ovarian) was 0.075 µM, the TGI (IGROV1 ovarian) was 0.402 µM and the GI50 (SK-MEL-5 melanoma) was 0.243 µM. It also gave a TGI (SK-MEL-5 melanoma) of 0.704 µM, a GI50 (NCI-H23 lung) of 0.385 µM and a TGI (NCI-H23 lung) of 8.03 µM. It also gave a GI50 (SNB-19 CNS) of 0.374 µM and a TGI (SNB-19 CNS) of 5.7 µM.
In the case of `O=C1c2cccc3cc([N+](=O)[O-])cc(c23)C(=O)N1CCN1CCCC1`, the GI50 (A549 NSCLC) is reported as 0.242 µM, the TGI (A549 NSCLC) is reported as 1.69 µM and the GI50 (OVCAR-8 ovarian) is reported as 0.566 µM. The TGI (OVCAR-8 ovarian) was 4.38 µM, the GI50 (SK-MEL-2 melanoma) was 1.88 µM and the TGI (SK-MEL-2 melanoma) was 4.45 µM. It also gave a GI50 (NCI/ADR-RES ovarian) of 0.871 µM, a GI50 (K-562 leukemia) of 0.534 µM and a GI50 (SF-268 CNS) of 0.601 µM. For the same compound, the TGI (SF-268 CNS) was 4.27 µM, the GI50 (IGROV1 ovarian) was 0.276 µM and the TGI (IGROV1 ovarian) was 5.16 µM. For the same compound, the GI50 (SK-MEL-5 melanoma) was 0.293 µM, the TGI (SK-MEL-5 melanoma) was 0.943 µM and the GI50 (NCI-H23 lung) was 0.466 µM. The TGI (NCI-H23 lung) was 4.3 µM, the GI50 (SNB-19 CNS) was 0.35 µM and the TGI (SNB-19 CNS) was 2.42 µM.
